Measured values: the supplement of paper PMC10307832

Legend:
Experiment in all cases: relative viability (nuclei count vs DMSO), 5 days (fraction); higher = more cells survive
Sorafenib + Crizotinib = compound: CNC(=O)c1cc(Oc2ccc(NC(=O)Nc3ccc(Cl)c(C(F)(F)F)c3)cc2)ccn1 [Sorafenib] + C[C@@H](Oc1cc(-c2cnn(C3CCNCC3)c2)cnc1N)c1c(Cl)ccc(F)c1Cl [Crizotinib] (partner 1 µM)
Summary of the method: (§1)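 A single step with final 0.05% Triton X-100, 1% formaldehyde and 1 ug/ml Hoechst fixed the cells and stained nuclei 5 days after treatment. Lung cancer cell lines in 1536-well plates had been treated by pin tool the day after seeding with one drug alone or a fixed anchor-drug dose plus five library-drug doses (not always all listed) in √10 steps, and nuclei were counted on 4× images. Relative viability is the ratio of nuclei in treated wells to nuclei in vehicle wells, taken as the median of duplicate plates.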

Sorafenib + Bortezomib = compound: CNC(=O)c1cc(Oc2ccc(NC(=O)Nc3ccc(Cl)c(C(F)(F)F)c3)cc2)ccn1 [Sorafenib] + CC(C)C[C@H](NC(=O)[C@H](Cc1ccccc1)NC(=O)c1cnccn1)B(O)O [Bortezomib] (partner 0.002 µM)
Summary of the method: as §1

Sorafenib + Pictilisib = compound: CNC(=O)c1cc(Oc2ccc(NC(=O)Nc3ccc(Cl)c(C(F)(F)F)c3)cc2)ccn1 [Sorafenib] + CS(=O)(=O)N1CCN(Cc2cc3nc(-c4cccc5[nH]ncc45)nc(N4CCOCC4)c3s2)CC1 [Pictilisib] (partner 1 µM)
Summary of the method: as §1

Sorafenib + Decitabine = compound: CNC(=O)c1cc(Oc2ccc(NC(=O)Nc3ccc(Cl)c(C(F)(F)F)c3)cc2)ccn1 [Sorafenib] + Nc1ncn([C@H]2C[C@H](O)[C@@H](CO)O2)c(=O)n1 [Decitabine] (partner 2 µM)
Summary of the method: as §1

Sorafenib + Navitoclax = compound: CNC(=O)c1cc(Oc2ccc(NC(=O)Nc3ccc(Cl)c(C(F)(F)F)c3)cc2)ccn1 [Sorafenib] + CC1(C)CCC(c2ccc(Cl)cc2)=C(CN2CCN(c3ccc(C(=O)NS(=O)(=O)c4ccc(N[C@H](CCN5CCOCC5)CSc5ccccc5)c(S(=O)(=O)C(F)(F)F)c4)cc3)CC2)C1 [Navitoclax] (partner 0.5 µM)
Summary of the method: as §1

Cell Line	relative viability (Sorafenib + Crizotinib; first compound 0.08 µM)	relative viability (Sorafenib + Crizotinib; first compound 0.253 µM)	relative viability (Sorafenib + Crizotinib; first compound 2.53 µM)	relative viability (Sorafenib + Crizotinib; first compound 8 µM)	relative viability (Sorafenib + Bortezomib; first compound 0.08 µM)	relative viability (Sorafenib + Bortezomib; first compound 0.253 µM)	relative viability (Sorafenib + Bortezomib; first compound 8 µM)	relative viability (Sorafenib + Pictilisib; first compound 0.08 µM)	relative viability (Sorafenib + Pictilisib; first compound 0.253 µM)	relative viability (Sorafenib + Pictilisib; first compound 2.53 µM)	relative viability (Sorafenib + Pictilisib; first compound 8 µM)	relative viability (Sorafenib + Decitabine; first compound 0.08 µM)	relative viability (Sorafenib + Decitabine; first compound 0.253 µM)	relative viability (Sorafenib + Decitabine; first compound 8 µM)	relative viability (Sorafenib + Navitoclax; first compound 0.08 µM)	relative viability (Sorafenib + Navitoclax; first compound 0.253 µM)	relative viability (Sorafenib + Navitoclax; first compound 2.53 µM)	relative viability (Sorafenib + Navitoclax; first compound 8 µM)	relative viability (Sorafenib + Bortezomib; first compound 2.53 µM)	relative viability (Sorafenib + Decitabine; first compound 2.53 µM)
BEN	1	0.844	0.862	0.68	0.951	0.659	0.631	0.649	0.512	0.531	0.413	0.746	0.726	0.461	0.09	0.0558	0.0776	0.0641		
NCI-H2085	0.938	1.01	0.965	0.717	1.09	0.824	0.91	0.541	0.444	0.549	0.481	0.608	0.566	0.49	1.21	1.07	1.17	0.901	1.01	0.573
EMC-BAC-2	0.648	0.728	0.762	0.809	1.06	0.917	1.02	0.54	0.6	0.549	0.472	0.925		0.757	1.22	1.06	1.18	1.11	1.07	
A-427	0.895	0.855	0.826	0.369	0.953	0.922	0.817	0.771	0.669	0.768	0.376	0.598	0.528	0.532	0.946	0.917	0.985	0.563	0.96	
LC-2-ad	0.496	0.447	0.511	0.421	1.25	1.01	0.618	0.432	0.369	0.32	0.193	0.881	0.789	0.59	0.343	0.413	0.418	0.218	0.914	0.762
ChaGo-K-1	1.22	1.09	1.07		1.18	0.781	0.451	0.939	0.592	0.794	0.399	0.532	0.537	0.471	1.23	0.866	1.11	0.576	1.16	0.51
NCI-H1650	0.961	1.1	1.01		0.239	0.217	0.212	0.691	0.529	0.71	0.308	0.443	0.61	0.439	1.2	1.1	1.29	1.29	0.225	0.49
SW 1573	0.984	0.86	0.89	0.753	1.22	1.05	0.286	0.464	0.465	0.402	0.257	0.57	0.511	0.182	1.1	0.947	0.983	0.689	0.989	0.408
LOU-NH91	0.841	0.751	0.844	0.654	0.548	0.454	0.537	0.557	0.543	0.585	0.491	0.807	0.829	0.845	0.82	0.742	0.86	0.61	0.552	0.87
NCI-H1944	1.12	1	1.08	0.912				0.368	0.332	0.365	0.274		0.47	0.38	1.06	1.06	1.18	0.872		0.482
HCC-366	0.705	0.464	0.549	0.356	1.05	0.98	0.831	0.208	0.118	0.138	0.151	0.337	0.295	0.279	1.11	0.944	1.06	1.01	0.991	0.34
COR-L 105	0.874	0.73	0.839	0.855		0.806	0.478	0.413	0.487	0.476	0.329	0.733	0.617	0.573	0.792	0.821	0.89	0.865	0.994	0.695
SK-MES-1	1.06	0.94	0.92	0.865				0.451	0.439	0.447	0.377	0.365	0.326	0.338	1.17	1.26	1.22			0.322
NCI-H2023	0.66		0.713	0.357	1.2	1.02	0.319	0.301	0.269	0.263	0.181	0.235	0.232	0.189	1.02	0.984	1.01	0.978	0.945	0.22
NCI-H1755	0.917	0.817	0.874	0.615	0.921	0.945	0.689	0.466	0.422	0.417	0.263	0.72	0.715	0.634	1.02	0.987	0.924	0.705	0.988	0.753
HARA	1.15	1.02	1.03	0.931	1.18	1.02	1.02	0.373	0.341	0.411	0.327	0.633	0.465	0.461	1.17	1.08		1.13	1.16	0.592
COR-L23	0.902	0.609	0.657	0.551	1.11	0.964	0.877	0.952	0.881	0.745	0.676	0.417	0.374	0.332	1.03	0.898	1.1	0.485	0.888	0.501
NCI-H1355	1.16	1.04	1.04	1.11	1.15	1.05	1.15	0.444	0.465	0.45	0.346	0.353	0.308	0.321	0.916	0.983	0.86	0.668	1.14	0.336
NCI-H1437	0.941	0.827	0.844	0.496	0.629	0.513		0.483	0.393	0.364	0.238	0.536	0.524	0.393	1.05	1.03	0.91	0.438	0.59	0.626

Cell Line	relative viability (Sorafenib + Crizotinib; first compound 0.08 µM)	relative viability (Sorafenib + Crizotinib; first compound 0.253 µM)	relative viability (Sorafenib + Crizotinib; first compound 2.53 µM)	relative viability (Sorafenib + Crizotinib; first compound 8 µM)	relative viability (Sorafenib + Bortezomib; first compound 0.08 µM)	relative viability (Sorafenib + Bortezomib; first compound 0.253 µM)	relative viability (Sorafenib + Bortezomib; first compound 8 µM)	relative viability (Sorafenib + Pictilisib; first compound 0.08 µM)	relative viability (Sorafenib + Pictilisib; first compound 0.253 µM)	relative viability (Sorafenib + Pictilisib; first compound 2.53 µM)	relative viability (Sorafenib + Pictilisib; first compound 8 µM)	relative viability (Sorafenib + Decitabine; first compound 0.08 µM)	relative viability (Sorafenib + Decitabine; first compound 0.253 µM)	relative viability (Sorafenib + Decitabine; first compound 8 µM)	relative viability (Sorafenib + Navitoclax; first compound 0.08 µM)	relative viability (Sorafenib + Navitoclax; first compound 0.253 µM)	relative viability (Sorafenib + Navitoclax; first compound 2.53 µM)	relative viability (Sorafenib + Navitoclax; first compound 8 µM)	relative viability (Sorafenib + Bortezomib; first compound 2.53 µM)	relative viability (Sorafenib + Decitabine; first compound 2.53 µM)
NCI-H2087	0.83	0.746	0.784	0.308	0.76	0.708	0.454	1.02	0.787	0.609	0.349	0.304	0.231	0.107	1.05	0.772	0.892	0.29	0.849	0.172
HOP-62	1.01	0.901	0.84	0.57	0.639	0.64	0.232	0.685	0.632	0.619	0.68	0.253	0.22	0.198	1.14	0.758	0.761	0.814		0.186
NCI-H2228	0.474	0.511	0.727	0.262	1.24	0.893	0.615	0.384	0.375	0.337	0.529				0.784	0.706	0.828	0.477	1.02	
LK-2	0.208		0.263	0.256				0.588		0.722	0.374	0.329	0.235	0.182	0.904	0.793	0.819	0.477		0.236
NCI-H522												0.645	0.686	0.648						0.657
NCI-H1395								0.603	0.636	0.642	0.39	0.732		0.743	1.35	1.08	1.1	1.05		0.772
LCLC-103H	1.12	1.14	1.28	1.13	1.08	1.23	1.08	0.689	0.581	0.698	0.758	0.701	0.774	0.698					1.05	0.771
SW 900												0.397	0.56	0.475						0.418
NCI-H2170	1.34	1.08	1.14	1.05				0.323	0.348	0.369	0.255	0.493	0.411	0.437	0.615	0.57	0.64	0.502		0.486
NCI-H650	0.777	0.563	0.735	0.595	0.759	0.581	0.677	0.911	0.751	0.696	0.746	0.343	0.295	0.278					0.746	0.34
ABC-1	1.4	1.07		1.04	0.36	0.253	0.336	0.78	0.713	1.02	0.332	1.23		1					0.321	0.823
NCI-H1703	0.588	0.209	0.141	0.157	0.193	0.207	0.151	0.243	0.21	0.197	0.177				1.03	0.319	0.215	0.148	0.183	
NCI-H1563	0.893	0.993	0.889	0.674		0.905	0.508	0.653	0.523	0.614	0.665								0.976	
NCI-H358	0.56	0.72	0.713	0.292				0.364	0.393	0.469	0.184	0.224	0.222	0.121						0.217
NCI-H2342												0.778	0.676	0.712						0.716
CAL-12T	0.751	0.581	0.524	0.381	1.04	0.689	0.465	0.6	0.396	0.575	0.396				1.32	1.19	1.06	0.64	1.24	
NCI-H1793								0.313	0.333	0.256	0.195	0.531	0.535		0.569	0.476	0.932	0.39		0.464
IA-LM	0.573	0.623	0.494	0.4	0.704	0.363	0.408	0.451	0.37	0.311	0.212				0.579	0.385	0.488	0.438	0.458	
NCI-H661	0.944	0.969	0.921	0.742	0.96	0.871	0.615	0.456	0.397	0.422	0.286	0.57	0.503	0.356					0.648	0.531
